Assay results as given in patent publication US6737383B1, “Herbicidal oxadiazolidines” (priority 1999, dated 2004).

How the values were obtained:
blackgrass = assay: Test B pre/postemergence blackgrass; format: in vivo, Alopecurus myosuroides
Procedure, shortened: (§1)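 Herbicidal effect was estimated by eye on a ten-point control scale after plants spent twelve to sixteen days in a greenhouse following soil or foliar treatment. Foliar sprays targeted plants at one to four leaves; all doses were formulated in a non-phytotoxic solvent with surfactant.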

surinam grass = assay: Test B pre/postemergence surinam grass; format: in vivo, Brachiaria decumbens
Procedure, shortened: as §1

cocklebur = assay: Test B pre/postemergence cocklebur; format: in vivo, Xanthium strumarium
Procedure, shortened: as §1

corn = assay: Test B pre/postemergence corn; format: in vivo, Zea mays
Procedure, shortened: as §1

crabgrass = assay: Test B pre/postemergence crabgrass; format: in vivo, Digitaria sanguinalis
Procedure, shortened: as §1

giant foxtail = assay: Test B pre/postemergence giant foxtail; format: in vivo, Setaria faberii
Procedure, shortened: as §1

morningglory = assay: Test B pre/postemergence morningglory; format: in vivo, Ipomoea hederacea
Procedure, shortened: as §1

pigweed = assay: Test B pre/postemergence pigweed; format: in vivo, Amaranthus retroflexus
Procedure, shortened: as §1

rape = assay: Test B pre/postemergence rape; format: in vivo, Brassica napus
Procedure, shortened: as §1

sugar beet = assay: Test B pre/postemergence sugar beet; format: in vivo, Beta vulgaris
Procedure, shortened: as §1

velvetleaf = assay: Test B pre/postemergence velvetleaf; format: in vivo, Abutilon theophrasti
Procedure, shortened: as §1

wheat = assay: Test B pre/postemergence wheat; format: in vivo, Triticum aestivum
Procedure, shortened: as §1

purple nutsedge = assay: Test B pre/postemergence purple nutsedge; format: in vivo, Cyperus rotundus
Procedure, shortened: as §1

rice = assay: Test B flood test rice; format: in vivo, Oryza sativa
Procedure, shortened: (§2)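 Each value is a visual injury score relative to controls, with 10 meaning complete control and 0 no effect. Evaluation took place twelve to sixteen days after the 2-leaf-stage plants were treated and kept in the greenhouse.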

smallflower flatsedge = assay: Test B flood test smallflower flatsedge; format: in vivo, Cyperus difformis
Procedure, shortened: as §2

duck salad = assay: Test B flood test duck salad; format: in vivo, Heteranthera limosa
Procedure, shortened: as §2

[1] = Postemergence, Rate 125 g/ha, scale 0 to 10, 0 is no effect, 10 is complete control
[2] = Preemergence, Rate 62 g/ha, scale of 0 to 10 where 0 is no effect and 10 is complete control
[3] = Preemergence, Rate 250 g/ha, scale of 0 to 10 where 0 is no effect and 10 is complete control
[4] = Preemergence, Rate 500 g/ha, scale of 0 to 10 where 0 is no effect and 10 is complete control
[5] = Rate 62 g/ha, Postemergence, scale 0 to 10 (0 no effect, 10 complete control)
[6] = Rate 250 g/ha, Postemergence, scale of 0 to 10 where 0 is no effect and 10 is complete control
[7] = Rate 500 g/ha, Postemergence, scale 0 to 10, 0 no effect, 10 complete control
[8] = Rate 62 g/ha, headed Pre-emergence (flood test species), scale 0 to 10 (0 no effect, 10 complete control)
[9] = Rate 125 g/ha, Pre-emergence, flood test species, scale 0 to 10 where 0 is no effect and 10 is complete control
[10] = Rate 250 g/ha, Pre-emergence, flood-test species, scale 0 to 10, 0 is no effect, 10 is complete control
[11] = Rate 500 g/ha, Pre-emergence, flood test species, scale 0 to 10 (0 no effect, 10 complete control)

CC(C)N(C(=O)n1oc(=O)n(C2CC3CCC2C3)c1=O)c1ccc(F)cc1 (centres unmarked) [Compound 327]
0: Plant response rating, Blackgrass (blackgrass; [1]) | Blackgrass plant response rating (blackgrass; [2]) | Blackgrass plant response rating (0 to 10 scale) (blackgrass; Preemergence, Rate 125 g/ha) | Blackgrass plant response rating (blackgrass; [5]) | Plant response rating, B. signalgrass (surinam grass; [1]) | B. signalgrass plant response rating (surinam grass; [2]) | B. signalgrass plant response rating (0 to 10 scale, 0 is no effect, 10 is complete control) (surinam grass; Preemergence, Rate 125 g/ha) | B. signalgrass plant response rating (surinam grass; [5]) | Plant response rating, B. signalgrass (surinam grass; [6]) | Plant response rating, B. signalgrass (surinam grass; [7]) | Plant response rating, Cocklebur (cocklebur; [1]) | Cocklebur plant response rating (cocklebur; [2]) | Cocklebur plant response rating (0 to 10 scale) (cocklebur; Preemergence, Rate 125 g/ha) | Cocklebur plant response rating (cocklebur; [3]) | Cocklebur plant response rating (cocklebur; [4]) | Cocklebur plant response rating (cocklebur; [5]) | Plant response rating, Cocklebur (cocklebur; [6]) | Plant response rating, Cocklebur (cocklebur; [7]) | Plant response rating, Corn (corn; [1]) | Corn plant response rating (corn; [2]) | Corn plant response rating (0 to 10 scale) (corn; Preemergence, Rate 125 g/ha) | Corn plant response rating (corn; [3]) | Corn plant response rating (corn; [4]) | Corn plant response rating (corn; [5]) | Plant response rating, Corn (corn; [6]) | Plant response rating, Corn (corn; [7]) | Plant response rating, Crabgrass (crabgrass; [1]) | Crabgrass plant response rating (crabgrass; [2]) | Crabgrass plant response rating (crabgrass; [5]) | Plant response rating, Crabgrass (crabgrass; [6]) | Plant response rating, Giant foxtail (giant foxtail; [1]) | Giant foxtail plant response rating (giant foxtail; [5]) | Plant response rating, Giant foxtail (giant foxtail; [6]) | Plant response rating, Giant foxtail (giant foxtail; [7]) | Morningglory plant response rating (morningglory; [2]) | Morningglory plant response rating (0 to 10 scale) (morningglory; Preemergence, Rate 125 g/ha) | Morningglory plant response rating (morningglory; [3]) | Morningglory plant response rating (morningglory; [4]) | Redroot pigweed plant response rating (pigweed; [2]) | Redroot pigweed plant response rating (0 to 10 scale) (pigweed; Preemergence, Rate 125 g/ha) | Plant response rating, Rape (rape; [1]) | Rape plant response rating (rape; [2]) | Rape plant response rating (0 to 10 scale) (rape; Preemergence, Rate 125 g/ha) | Rape plant response rating (rape; [3]) | Rape plant response rating (rape; [5]) | Plant response rating, Sugarbeets (sugar beet; [1]) | Sugarbeets plant response rating (sugar beet; [2]) | Sugarbeets plant response rating (0 to 10 scale) (sugar beet; Preemergence, Rate 125 g/ha) | Sugarbeets plant response rating (sugar beet; [3]) | Sugarbeets plant response rating (sugar beet; [5]) | Plant response rating, Sugarbeets (sugar beet; [6]) | Plant response rating, Sugarbeets (sugar beet; [7]) | Plant response rating, Velvetleaf (velvetleaf; [1]) | Velvetleaf plant response rating (velvetleaf; [2]) | Velvetleaf plant response rating (0 to 10 scale) (velvetleaf; Preemergence, Rate 125 g/ha) | Velvetleaf plant response rating (velvetleaf; [3]) | Velvetleaf plant response rating (velvetleaf; [4]) | Velvetleaf plant response rating (velvetleaf; [5]) | Plant response rating, Velvetleaf (velvetleaf; [6]) | Plant response rating, Velvetleaf (velvetleaf; [7]) | Plant response rating, Wheat (wheat; [1]) | Wheat plant response rating (wheat; [2]) | Wheat plant response rating (wheat; [5]) | Plant response rating, Wheat (wheat; [6]) | Plant response rating, Nutsedge (purple nutsedge; [1]) | Nutsedge plant response rating (0 to 10 scale) (purple nutsedge; Preemergence, Rate 125 g/ha) | Nutsedge plant response rating (purple nutsedge; [3]) | Nutsedge plant response rating (purple nutsedge; [4]) | Nutsedge plant response rating (purple nutsedge; [5]) | Plant response rating, Nutsedge (purple nutsedge; [6]) | Plant response rating, Nutsedge (purple nutsedge; [7]) | Rice plant response rating (rice; [8]) | Rice plant response rating (rice; [9]) | Rice plant response rating (rice; [10]) | Rice plant response rating (rice; [11]) | S. Flatsedge plant response rating (smallflower flatsedge; [8]) | S. Flatsedge plant response rating (smallflower flatsedge; [9]) | S. Flatsedge plant response rating (smallflower flatsedge; [10]) | S. Flatsedge plant response rating (smallflower flatsedge; [11]) | Ducksalad plant response rating (duck salad; [8]) | Ducksalad plant response rating (duck salad; [9]) | Ducksalad plant response rating (duck salad; [10]) | Ducksalad plant response rating (duck salad; [11])
6: Plant response rating, Redroot pigweed (pigweed; [6])
2: Crabgrass plant response rating (0 to 10 scale) (crabgrass; Preemergence, Rate 125 g/ha) | Rape plant response rating (rape; [4]) | Plant response rating, Rape (rape; [6]) | Plant response rating, Rape (rape; [7])
8: Giant foxtail plant response rating (0 to 10 scale) (giant foxtail; Preemergence, Rate 125 g/ha) | Plant response rating, Morningglory (morningglory; [1]) | Plant response rating, Morningglory (morningglory; [6])
5: Crabgrass plant response rating (crabgrass; [4]) | Plant response rating, Redroot pigweed (pigweed; [1])
7: Blackgrass plant response rating (blackgrass; [4]) | Plant response rating, Blackgrass (blackgrass; [7]) | B. signalgrass plant response rating (surinam grass; [4]) | Giant foxtail plant response rating (giant foxtail; [2]) | Morningglory plant response rating (morningglory; [5]) | Plant response rating, Redroot pigweed (pigweed; [7])
4: Blackgrass plant response rating (blackgrass; [3]) | Redroot pigweed plant response rating (pigweed; [5]) | Wheat plant response rating (wheat; [4])
10: Plant response rating, Morningglory (morningglory; [7])
3: Plant response rating, Blackgrass (blackgrass; [6]) | Crabgrass plant response rating (crabgrass; [3]) | Redroot pigweed plant response rating (pigweed; [4]) | Sugarbeets plant response rating (sugar beet; [4])
9: Giant foxtail plant response rating (giant foxtail; [3]) | Giant foxtail plant response rating (giant foxtail; [4])
1: B. signalgrass plant response rating (surinam grass; [3]) | Plant response rating, Crabgrass (crabgrass; [7]) | Redroot pigweed plant response rating (pigweed; [3]) | Plant response rating, Wheat (wheat; [7])
